Measured values from US12389910B2, “Beta-lactams and their use as herbicides” (BASF SE, priority 2020, dated 2025).

How the values were obtained:
[1] = system: ABUTH; experiment: greenhouse herbicidal activity, post-emergence treatment; format: in vivo, Abutilon theophrasti; conditions: post-emergence method, scale 0 to 100
Excerpt: (§1) The culture containers used were plastic flowerpots containing loamy sand with approximately 3.0% of humus as the substrate. The seeds of the test plants were sown separately for each species.
(§2) For the pre-emergence treatment, the active ingredients, which had been suspended or emulsified in water, were applied directly after sowing by means of finely distributing nozzles. The containers were irrigated gently to promote germination and growth and subsequently covered with transparent plastic hoods until the test plants had rooted. This cover caused uniform germination of the test plants, unless this had been impaired by the active ingredients. For the post-emergence treatment, the test plants were first grown to a height of 3 to 15 cm, depending on the plant habit, and only then treated with the active ingredients which had been suspended or emulsified in water. For this purpose, the test plants were either sown directly and grown in the same containers, or they were first grown separately as seedlings and transplanted into the test containers a few days prior to treatment.
(§3) Depending on the species, the test plants were kept at 10-25° C. or 20-35° C., respectively. The test period extended over 2 to 4 weeks. During this time, the test plants were tended, and their response to the individual treatments was evaluated.
(§4) Evaluation was carried out using a scale from 0 to 100. […]

[2] = system: ABUTH; experiment: greenhouse herbicidal activity, pre-emergence treatment; format: in vivo, Abutilon theophrasti; conditions: pre-emergence method, application rate 0,250 kg/ha; scale 0 to 100
Excerpt: as §1, §2, §3, §4

[3] = system: ALOMY; experiment: greenhouse herbicidal activity, post-emergence treatment; format: in vivo, Alopercurus myosuroides; conditions: post-emergence method, scale 0 to 100
Excerpt: as §1, §2, §3, §4

[4] = system: AMARE; experiment: greenhouse herbicidal activity, pre-emergence treatment; format: in vivo, Amaranthus retroflexus; conditions: pre-emergence method, application rate 0,500 kg/ha; scale 0 to 100
Excerpt: as §1, §2, §3, §4

[5] = system: AVEFA; experiment: greenhouse herbicidal activity, post-emergence treatment; format: in vivo, Avena fatua; conditions: post-emergence method, scale 0 to 100
Excerpt: as §1, §2, §3
Evaluation was carried out using a scale from 0 to 100. 100 means no emergence of the test plants, or complete destruction of at least the aerial moieties, and 0 means no damage, or normal course of growth. A good herbicidal activity is given at values of 80 to 90 and a very good herbicidal activity is given at values of 90 to 100.
The test plants used in the greenhouse experiments were of the following species: Bayer code Scientific name

[6] = system: SETFA; experiment: as above; format: in vivo, Setaria faberi; conditions: post-emergence method, application rate 62.5 g/ha; scale 0 to 100
Excerpt: as §1, §2, §3, §4

[7] = system: AMARE; experiment: as above; format: in vivo, Amaranthus retroflexus; conditions: post-emergence method, application rate 0,250 kg/ha; scale 0 to 100
Excerpt: as §1, §2, §3, §4

[8] = system: ECHCG; experiment: as above; format: in vivo, Echinocloa crus-galli; conditions: post-emergence method, scale 0 to 100
Excerpt: as §1, §2, §3, §4

[9] = system: SETFA; experiment: greenhouse herbicidal activity, pre-emergence treatment; format: in vivo, Setaria faberi; conditions: pre-emergence method, scale 0 to 100
Excerpt: as §1, §2, §3, §4

[10] = system: ECHCG; experiment: as above; format: in vivo, Echinocloa crus-galli; conditions: pre-emergence method, application rate 0,250 kg/ha; scale 0 to 100
Excerpt: as §1, §2, §3, §4

[11] = system: APESV; experiment: as above; format: in vivo, Apera spica-venti; conditions: pre-emergence method, application rate 1,000 kg/ha; scale 0 to 100
Excerpt: as §1, §2, §3, §4

[12] = system: SETVI; experiment: greenhouse herbicidal activity, post-emergence treatment; format: in vivo, Setaria viridis; conditions: post-emergence method, application rate 16.0 g/ha; scale 0 to 100
Excerpt: as §1, §2, §3, §4

[13] = system: LOLMU; experiment: as above; format: in vivo; conditions: post-emergence method, application rate 16.0 g/ha; scale 0 to 100
Excerpt: as §1, §2, §3, §4

COC(=O)C1C=CC(NC(=O)C2(C)CN(c3ccc(F)c(C#N)c3)C2=O)C1 (stereo not shown) [compound 147]
herbicidal activity against ABUTH ([1]; application rate 0,250 kg/ha): very good (a very good herbicidal activity is given at values of 90 to 100)

COC(=O)CC(C)NC(=O)C1(C)CN(c2cc(C)cc(F)c2)C1=O (stereo not shown) [compound 142]
herbicidal activity against ABUTH [2]: good (A good herbicidal activity is given at values of 80 to 90)
herbicidal activity against ALOMY ([3]; application rate 0,250 kg/ha): good (A good herbicidal activity is given at values of 80 to 90)

CCOC(=O)CC(C)NC(=O)C1(OC)CN(c2cc(Cl)cc(Cl)c2)C1=O (stereo not shown) [compound 13]
herbicidal activity against AMARE [4]: good (A good herbicidal activity is given at values of 80 to 90)

CC1(C(=O)NC2C=CC(C(=O)O)C2)CN(c2cc(F)cc(F)c2)C1=O (stereo not shown) [compound 133]
herbicidal activity against AVEFA ([5]; application rate 62.5 g/ha): very good (a very good herbicidal activity is given at values of 90 to 100)
herbicidal activity against ALOMY ([3]; application rate 62.5 g/ha): good (A good herbicidal activity is given at values of 80 to 90)
herbicidal activity against SETFA [6]: very good (a very good herbicidal activity is given at values of 90 to 100)

CCC1(C(=O)NC(C)CC(=O)OC)CN(c2cc(Cl)cc(Cl)c2)C1=O (stereo not shown) [compound 125]
herbicidal activity against AMARE [7]: good (A good herbicidal activity is given at values of 80 to 90)

COC(=O)[C@@H]1C=C[C@H](NC(=O)C2(C)CN(c3cc(C)cc(F)c3)C2=O)C1 (relative stereo) [compound 141]
herbicidal activity against ECHCG ([8]; application rate 0,250 kg/ha): good (A good herbicidal activity is given at values of 80 to 90)
herbicidal activity against SETFA ([9]; application rate 0,250 kg/ha): good (A good herbicidal activity is given at values of 80 to 90)
herbicidal activity against ECHCG [10]: good (A good herbicidal activity is given at values of 80 to 90)

COC(=O)CC(C)NC(=O)C1(C)CN(c2cc(Cl)cc(Cl)c2)C1=O (stereo not shown) [compound 11]
herbicidal activity against ECHCG ([8]; application rate 1,000 kg/ha): very good (a very good herbicidal activity is given at values of 90 to 100)
herbicidal activity against APESV [11]: very good (a very good herbicidal activity is given at values of 90 to 100)
herbicidal activity against SETFA ([9]; application rate 1,000 kg/ha): very good (a very good herbicidal activity is given at values of 90 to 100)

COC(=O)C1C=CC(NC(=O)C2(C)CN(c3cccc(Cl)c3)C2=O)C1 (stereo not shown) [compound 136]
herbicidal activity against SETVI [12]: very good (a very good herbicidal activity is given at values of 90 to 100)
herbicidal activity against AVEFA ([5]; application rate 16.0 g/ha): very good (a very good herbicidal activity is given at values of 90 to 100)
herbicidal activity against LOLMU [13]: very good (a very good herbicidal activity is given at values of 90 to 100)

COC(=O)[C@@H]1C=C[C@H](NC(=O)C2(C)CN(c3cccc(OC(F)(F)C(F)F)c3)C2=O)C1 (relative stereo) [compound 146]
herbicidal activity against AVEFA ([5]; application rate 0,250 kg/ha): good (A good herbicidal activity is given at values of 80 to 90)

COC(=O)CC(C)NC(=O)C1CN(c2cc(Cl)cc(Cl)c2)C1=O (stereo not shown) [compound 131]
herbicidal activity against ABUTH ([1]; application rate 1,000 kg/ha): very good (a very good herbicidal activity is given at values of 90 to 100)
